Results from US10072011B2, “Substituted bridged urea analogs as sirtuin modulators” (GlaxoSmithKline Intellectual Property (No.2) Limited, priority 2014, dated 2018).
Like-named read-outs stand apart in the source and are kept apart here.

Biological target: T1, SIRT1 (Homo sapiens, UniProt Q96EB6)
T1 sequence (Q96EB6 1-747): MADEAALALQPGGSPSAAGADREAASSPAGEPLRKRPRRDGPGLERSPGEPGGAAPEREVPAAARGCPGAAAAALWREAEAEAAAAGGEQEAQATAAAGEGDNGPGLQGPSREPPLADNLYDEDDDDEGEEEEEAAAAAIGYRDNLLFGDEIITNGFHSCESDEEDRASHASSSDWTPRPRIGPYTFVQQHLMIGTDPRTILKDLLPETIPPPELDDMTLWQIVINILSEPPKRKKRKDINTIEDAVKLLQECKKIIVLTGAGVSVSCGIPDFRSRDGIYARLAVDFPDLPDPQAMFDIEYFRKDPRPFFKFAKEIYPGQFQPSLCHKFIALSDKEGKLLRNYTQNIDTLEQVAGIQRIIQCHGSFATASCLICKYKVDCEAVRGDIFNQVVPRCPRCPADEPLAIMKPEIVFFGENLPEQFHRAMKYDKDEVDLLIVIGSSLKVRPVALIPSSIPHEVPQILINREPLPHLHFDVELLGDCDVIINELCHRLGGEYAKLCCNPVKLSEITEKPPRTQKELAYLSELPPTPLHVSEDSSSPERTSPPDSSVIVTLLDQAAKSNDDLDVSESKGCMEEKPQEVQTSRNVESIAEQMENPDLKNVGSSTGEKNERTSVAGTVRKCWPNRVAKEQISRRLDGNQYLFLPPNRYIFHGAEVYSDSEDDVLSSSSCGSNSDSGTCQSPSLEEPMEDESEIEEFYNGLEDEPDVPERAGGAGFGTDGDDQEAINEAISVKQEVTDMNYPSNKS
Test: Trp mass spectrometry assay of SIRT1 activation (Ac-R-H-K-K(Ac)-W-NH2 peptide)
Format: biochemical
Details: for Emax: 25 min, read-out: TRP MAX RESP (percent maximum fold activation)
Outline: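 N-terminal His-tagged human SIRT1, expressed in BL21(DE3) and purified, was incubated 25 min with an acetylated Trp peptide and NAD plus test compound at varying concentrations, then quenched with formic acid. OAADPR or deacetylated peptide was quantified by mass spectrometry versus compound-free control; EC1.5 is the concentration giving 50% activity increase, with percent maximum activation.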

[1] = Trp peptide 0.5 μM, 120 μM βNAD+, 10 nM SIRT1, 25 min at 25° C.
[2] = Trp peptide 0.5 μM, 120 μM βNAD+, 10 nM SIRT1, 25 min at 25° C., relative to control (100%)

| TRP Activity (EC1.5, concentration of test compound that results in 150% activation of SIRT1) [1] | Emax [2] [%] | SMILES | Emax [%] |
| --- | --- | --- | --- |
| A (EC1.5<1 μM) | < 150 | C[C@@H](NC(=O)c1ccc2c(n1)N(C(=O)Nc1cc(-c3ncn[nH]3)ccn1)[C@H]1CCN2C1)C(F)(F)F [Example 322, (4S)—N5-(4-(1H-1,2,4-triazol-5-yl)pyridin-2-yl)-N7-((R)-1,1,1-trifluoropropan-2-yl)-3,4-dihydro-1,4-methanopyrido[2,3-b][1,4]diazepine-5,7(2H)-dicarboxamide] |  |
| A (EC1.5<1 μM) | > 150 | Cc1ncc(-c2ccnc(NC(=O)N3c4nc(C(=O)N[C@H](C)C(F)(F)F)ccc4N4CC[C@H]3C4)c2)s1 [Example 148, (4S)—N5-(4-(2-methylthiazol-5-yl)pyridin-2-yl)-N7-((R)-1,1,1-trifluoropropan-2-yl)-3,4-dihydro-1,4-methanopyrido[2,3-b][1,4]diazepine-5,7(2H)-dicarboxamide] |  |
| A (EC1.5<1 μM) | > 150 | O=C(NCC1CC1)c1ccc2c(n1)N(C(=O)Nc1ccc(Cl)cn1)[C@H]1CCN2C1 [Example 51, (4S)—N5-(5-chloropyridin-2-yl)-N7-(cyclopropylmethyl)-3,4-dihydro-1,4-methanopyrido[2,3-b][1,4]diazepine-5,7(2H)-dicarboxamide] |  |
| B (EC1.5 1-25 μM) | > 150 | O=C(NCC1(O)CC1)c1ccc2c(n1)N(C(=O)Nc1ccccn1)[C@H]1CCN2C1 [Example 36, (4S)—N7-((1-hydroxycyclopropyl)methyl)-N5-(pyridin-2-yl)-3,4-dihydro-1,4-methanopyrido[2,3-b][1,4]diazepine-5,7(2H)-dicarboxamide] |  |
| A (EC1.5<1 μM) | > 150 | Cc1ccc2c(NC(=O)N3c4nc(C(=O)N[C@H](C)C(F)(F)F)cc(C)c4N4CC[C@H]3C4)n[nH]c2n1 [Example 289, (4S)-9-methyl-N5-(6-methyl-1H-pyrazolo[3,4-b]pyridin-3-yl)-N7-((R)-1,1,1-trifluoropropan-2-yl)-3,4-dihydro-1,4-methanopyrido[2,3-b][1,4]diazepine-5,7(2H)-dicarboxamide] |  |
| A (EC1.5<1 μM) | > 150 | C#C[C@H](C)NC(=O)c1ccc2c(n1)N(C(=O)Nc1ccccn1)[C@H]1CCN2C1 [Example 142, (4S)—N7-((S)-but-3-yn-2-yl)-N5-(pyridin-2-yl)-3,4-dihydro-1,4-methanopyrido[2,3-b][1,4]diazepine-5,7(2H)-dicarboxamide] |  |
| A (EC1.5<1 μM) | > 150 | O=C(NC1CC1)c1ccc2c(n1)N(C(=O)Nc1ccccn1)[C@H]1CCN2C1 [Example 2, (4S)—N7-cyclopropyl-N5-(pyridin-2-yl)-3,4-dihydro-1,4-methano pyrido[2,3-b][1,4]diazepine-5, 7(2H)-dicarboxamide] |  |
| A (EC1.5<1 μM) | > 150 | O=C(NC1CC1)c1ccc2c(n1)N(C(=O)Nc1cc3c(cn1)OCCC3)[C@H]1CCN2C1 [Example 160, (4S)—N7-cyclopropyl-N5-(3,4-dihydro-2H-pyrano[2,3-c]pyridin-6-yl)-3,4-dihydro-1,4-methanopyrido[2,3-b][1,4]diazepine-5,7(2H)-dicarboxamide] |  |
| A (EC1.5<1 μM) | > 150 | C[C@@H](NC(=O)c1nc2c(cc1Cl)N1CC[C@@H](C1)N2C(=O)Nc1ccccn1)C(F)(F)F [Example 280, (4S)-8-chloro-N5-(pyridin-2-yl)-N7-((R)-1,1,1-trifluoropropan-2-yl)-3,4-dihydro-1,4-methanopyrido[2,3-b][1,4]diazepine-5,7(2H)-dicarboxamide] |  |
| A (EC1.5<1 μM) | > 150 | COc1cc2c(nc1C(=O)NCC(F)(F)F)N(C(=O)Nc1ccccn1)[C@H]1CCN2C1 [Example 284, (4S)-8-methoxy-N5-(pyridin-2-yl)-N7-(2,2,2-trifluoroethyl)-3,4-dihydro-1,4-methanopyrido[2,3-b][1,4]diazepine-5,7(2H)-dicarboxamide] |  |
| A (EC1.5<1 μM) | < 150 | Cc1cc2c(nc1C(=O)N[C@H](C)C(F)(F)F)N(C(=O)Nc1cc(OC[C@H](O)CO)ccn1)[C@H]1CCN2C1 [Example 291, (4S)—N5-(4-((R)-2,3-dihydroxypropoxy)pyridin-2-yl)-8-methyl-N7-((R)-1,1,1-trifluoropropan-2-yl)-3,4-dihydro-1,4-methanopyrido[2,3-b][1,4]diazepine-5,7(2H)-dicarboxamide] |  |
| B (EC1.5 1-25 μM) | > 150 | Cc1ccnc(NC(=O)N2c3nc(C(=O)NC4CC4)ccc3N3CC[C@H]2C3)c1 [Example 22, (4S)—N7-cyclopropyl-N5-(4-methylpyridin-2-yl)-3,4-dihydro-1,4-methanopyrido[2,3-b][1,4]diazepine-5,7(2H)-dicarboxamide] |  |
| B (EC1.5 1-25 μM) | > 150 | Cc1nc(NC(=O)N2c3nc(C(=O)NC4CC4)ccc3N3CC[C@H]2C3)co1 [Example 255, (4S)—N7-cyclopropyl-N5-(2-methyloxazol-4-yl)-3,4-dihydro-1,4-methanopyrido[2,3-b][1,4]diazepine-5,7(2H)-dicarboxamide] |  |
| A (EC1.5<1 μM) | < 150 | CCNC(=O)c1ccnc(NC(=O)N2c3nc(C(=O)N[C@H](C)C(F)(F)F)ccc3N3CC[C@H]2C3)c1 [Example 304, (4S)—N5-(4-(ethylcarbamoyl)pyridin-2-yl)-N7-((R)-1,1,1-trifluoropropan-2-yl)-3,4-dihydro-1,4-methanopyrido[2,3-b][1,4]diazepine-5,7(2H)-dicarboxamide] |  |
| A (EC1.5<1 μM) | > 150 | C[C@@H](NC(=O)c1ccc2c(n1)N(C(=O)Nc1ncc3[nH]ccc3n1)[C@H]1CCN2C1)C(F)(F)F [Example 147, (4S)—N5-(5H-pyrrolo[3,2-d]pyrimidin-2-yl)-N7-((R)-1,1,1-trifluoropropan-2-yl)-3,4-dihydro-1,4-methanopyrido[2,3-b][1,4]diazepine-5,7(2H)-dicarboxamide] |  |
| B (EC1.5 1-25 μM) | > 150 | COC(=O)CNC(=O)c1ccc2c(n1)N(C(=O)Nc1ccccn1)[C@H]1CCN2C1 [Example 12] |  |
| B (EC1.5 1-25 μM) | > 150 | NCC(F)(F)CNC(=O)c1ccc2c(n1)N(C(=O)Nc1ccccn1)[C@H]1CCN2C1 [Example 94, (4S)—N7-(3-amino-2,2-difluoropropyl)-N5-(pyridin-2-yl)-3,4-dihydro-1,4-methanopyrido[2,3-b][1,4]diazepine-5,7(2H)-dicarboxamide] |  |
| A (EC1.5<1 μM) | > 150 | O=C(NCCF)c1ccc2c(n1)N(C(=O)Nc1ccccn1)[C@H]1CCN2C1 [Example 39, (4S)—N7-(2-fluoroethyl)-N5-(pyridin-2-yl)-3,4-dihydro-1,4-methanopyrido[2,3-b][1,4]diazepine-5,7(2H)-dicarboxamide] |  |
| B (EC1.5 1-25 μM) | > 150 | O=C(NCC(F)(F)F)c1ccc2c(n1)N(C(=O)Nc1ccccn1)[C@H]1CC[N+]2([O-])C1 [Example 295, (4S)-5-(pyridin-2-ylcarbamoyl)-7-((2,2,2-trifluoroethyl)carbamoyl)-2,3,4,5-tetrahydro-1H-1,4-methanopyrido[2,3-b][1,4]diazepine 1-oxide] |  |
| B (EC1.5 1-25 μM) | > 150 | O=C(NC1CC1)c1ccc2c(n1)N(C(=O)Nc1cc(OC[C@H](O)CO)ccn1)[C@H]1CCN2C1 [Example 24, (4S)—N7-cyclopropyl-N5-(4-((R)-2,3-dihydroxypropoxy)pyridin-2-yl)-3,4-dihydro-1,4-methanopyrido[2,3-b][1,4]diazepine-5,7(2H)-dicarboxamide] |  |

| SMILES | TRP Activity (EC1.5, concentration of test compound that results in 150% activation of SIRT1) [1] | Emax [2] [%] | Emax [%] |
| --- | --- | --- | --- |
| CC(C)NC(=O)c1ccc2c(n1)N(C(=O)Nc1ccccn1)[C@H]1CCN2C1 [Example 32, (4S)—N7-isopropyl-N5-(pyridin-2-yl)-3,4-dihydro-1,4-methanopyrido[2,3-b][1,4]diazepine-5,7(2H)-dicarboxamide] | A (EC1.5<1 μM) |  | > 150 |
